Format in all cases: cell-based
The target of one test is T1, rat RXFP1 (Rattus norvegicus, UniProt Q6R6I6).
T1 construct: expressed in transfected cells
T1 sequence (Q6R6I6 1-758): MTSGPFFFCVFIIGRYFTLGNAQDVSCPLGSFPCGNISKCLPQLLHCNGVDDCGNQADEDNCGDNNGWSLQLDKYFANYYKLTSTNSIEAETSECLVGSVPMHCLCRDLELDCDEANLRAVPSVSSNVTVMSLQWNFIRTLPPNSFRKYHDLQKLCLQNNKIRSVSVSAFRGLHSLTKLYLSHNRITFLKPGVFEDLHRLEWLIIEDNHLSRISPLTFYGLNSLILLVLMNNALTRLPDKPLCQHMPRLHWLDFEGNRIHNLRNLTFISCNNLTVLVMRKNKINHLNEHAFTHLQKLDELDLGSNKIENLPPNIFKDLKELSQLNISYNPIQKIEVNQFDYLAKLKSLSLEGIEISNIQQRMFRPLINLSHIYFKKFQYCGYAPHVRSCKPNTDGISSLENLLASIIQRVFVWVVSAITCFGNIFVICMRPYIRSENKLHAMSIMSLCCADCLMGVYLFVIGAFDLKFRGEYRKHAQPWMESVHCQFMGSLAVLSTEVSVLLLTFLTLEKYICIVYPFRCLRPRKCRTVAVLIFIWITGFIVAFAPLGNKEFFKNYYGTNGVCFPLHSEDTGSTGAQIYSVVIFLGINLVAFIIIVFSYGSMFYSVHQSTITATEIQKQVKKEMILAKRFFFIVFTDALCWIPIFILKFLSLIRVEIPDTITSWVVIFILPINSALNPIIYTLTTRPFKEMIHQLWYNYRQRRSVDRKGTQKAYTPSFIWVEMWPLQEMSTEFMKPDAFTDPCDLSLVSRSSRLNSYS
The experiment in a line: cAMP HTRF assay in HEK_ratRXFP1 cells.

Test [1] concerns the target T2, RXFP1 (Homo sapiens, UniProt Q9HBX9).
T2 sequence (Q9HBX9 1-757): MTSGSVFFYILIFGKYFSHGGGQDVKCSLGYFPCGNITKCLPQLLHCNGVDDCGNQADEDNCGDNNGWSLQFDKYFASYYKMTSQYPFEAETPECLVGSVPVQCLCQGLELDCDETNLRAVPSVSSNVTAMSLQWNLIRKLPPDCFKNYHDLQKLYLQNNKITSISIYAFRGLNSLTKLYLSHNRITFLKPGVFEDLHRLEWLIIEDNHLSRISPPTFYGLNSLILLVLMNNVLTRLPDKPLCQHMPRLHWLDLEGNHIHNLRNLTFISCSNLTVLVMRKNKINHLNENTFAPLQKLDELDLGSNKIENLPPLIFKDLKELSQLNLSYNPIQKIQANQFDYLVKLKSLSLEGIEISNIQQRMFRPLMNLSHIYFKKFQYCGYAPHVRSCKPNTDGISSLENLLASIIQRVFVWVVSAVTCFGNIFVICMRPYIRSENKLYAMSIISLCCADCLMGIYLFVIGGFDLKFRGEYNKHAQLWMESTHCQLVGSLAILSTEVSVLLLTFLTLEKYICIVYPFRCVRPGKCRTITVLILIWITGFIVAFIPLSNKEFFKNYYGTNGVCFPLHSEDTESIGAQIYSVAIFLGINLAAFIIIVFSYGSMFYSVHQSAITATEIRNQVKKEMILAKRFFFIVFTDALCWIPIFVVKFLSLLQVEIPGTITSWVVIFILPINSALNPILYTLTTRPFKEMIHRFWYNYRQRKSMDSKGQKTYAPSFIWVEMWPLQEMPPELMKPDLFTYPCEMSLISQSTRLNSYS
In words: cAMP HTRF assay in EA.hy926_hRXFP1 cells. Also noted: expressed in transfected cells; host or cells: EA.hy926 (ATCC CRL-2922), lentiviral transduction, puromycin selection. Background: Time-resolved FRET reads energy transfer from a long-lived donor to a nearby acceptor.
Experimental: EA.hy926 or EA.hy926_RXFP1 were grown in complete growth medium (DMEM + 10% Fetal Calf serum + 1% Penicillin/Streptomycin + puromycin 0.5 µg/mL) at 37 °C and 5% CO2 in a humidified incubator. When cells reached 80–90% confluency, cells were detached from plastic using Trypsin–EDTA and were plated in 96 or 384-well plates according to the test.
(§1) Cells were plated in low-volume 384-well plates at a density of 4000 cells/well for EA.hy926_RXFP1 cells or 8000 cells/well for OVCAR5 cells in a final volume of 5 µL. The plates were briefly centrifuged at 800 rpm to allow the cell suspension to move to the bottom of the wells and then incubated for 24 h at 37 °C in 5% CO2. 5µL of the diluted compounds were then transferred in 384-well plate containing 5µL of cells in test medium. The assay plates were incubated for 30 min at 37 °C under 5% CO2. After 30 min the reaction was stopped by addition of HTRF revelation reagents with a multidrop dispenser. […]
(§2) After overnight incubation at room temperature, HTRF signal was read at 620 and 665 nm on Phera Star (BMG LAbtech) plate reader. The HTRF signal was calculated as follows: ratio HTRF = [(signal 665 nm)/(signal 620 nm)] × 10^4. […]
(§3) Relative EC50s (EC50rel) were determined with SAS procedure NLIN in SAS system release 9.4 under Unix via Biost@t-SPEED-LTS v2.4 internal software using the 4-parameter logistic model[47]. […]

For test [2], the target named is T2, RXFP1. In words: cAMP HTRF assay in OVCAR5 cells (endogenous RXFP1). On the set-up: they express significant endogenous levels of RXFP1 (determined by RT-PCR); endogenous in cells; host or cells: OVCAR5 (from NIH, NCI-60 panel).
Experimental: OVCAR5 cells were grown in complete medium (RPMI 1640 + 10% Fetal Calf serum + 1% Penicillin/Streptomycin) at 37 °C and 5% CO2 in a humidified incubator. OVCAR5 cells were detached with accutase for 5 min and were plated in 384-well plates at a density of 8000 cells/well.
as §1, §2, §3
The target in another test is T3, hRXFP1 (F76V) (Homo sapiens, UniProt Q9HBX9, F76V).
T3 sequence (Q9HBX9 1-757 F76V): T2 sequence (Q9HBX9 1-757) with F76V
The experiment in a line: cAMP production in HEK cells expressing hRXFP1 (F76V). The settings on record: hRXFP1 F76V mutant, n = 4 experiments in duplicate. As for the experimental part: HEK cells were stably transduced with lentiviral constructs (Vectalys, MOI 20, batches rV2.1A1.5057 B, rV2.1A1.5056 B and rV2.1A1.5059 B) containing a bicistronic vectors encoding hRXFP1 (S69P) or hRXFP1 (F76V) or hRXFP1 (S69P/F76V) under the EF1 promoter followed by an internal ribosome entry site (IRES) elements to express the neomycin antibiotic resistance gene for selection with 500 μg/mL Geneticin (Invitrogen, #10131-019). Three days post transduction, HEK cells were grown in the presence of Genetecin. Positive individual clones were selected and amplified, and cAMP readout (nM) was used as described for other cell types at a cell density of 8000 cells/well.

Two compounds from PMC9705314, “Characterization of a new potent and long-lasting single chain peptide agonist of RXFP1 in cells and in vivo translational models” (Scientific Reports, 2022) can be followed below.

Numbering of substitutions follows the chain as printed. *1 amine or outer side, *2 acyl side, *3 side chain or, on linkers, in order; H or OH if unused. Where a SMILES comes first, the peptide text is derived from it. Side-chain parts run from the residue outwards. [ ]: non-standard residue; d: D form. The star is where a group is joined. γGlu = O=C(O)[C@H](CCC(=O)[*:2])N[*:1]; Stearoyl = CCCCCCCCCCCCCCCCCC(=O)*; Nle = CCCC[C@H](N)C(=O)O; AEEA = NCCOCCOCC(=O)O; Aib = CC(C)(N)C(=O)O

As to `CCCCCCCCCCCCCCCCCC(=O)N[C@@H](CCC(=O)N[C@@H](CCC(=O)N[C@@H](CCC(=O)NCCOCCOCC(=O)NCCOCCOCC(=O)NCCOCCOCC(=O)NCCCC[C@H](NC(=O)[C@H](CCCCNC(C)=O)NC(=O)[C@H](CCCCN)NC(=O)[C@H](CCCNC(=N)N)NC(=O)C(C)(C)NC(=O)[C@H](CO)NC(=O)[C@H](Cc1c[nH]c2ccccc12)NC(=O)[C@@H](NC(=O)[C@H](CO)NC(=O)[C@H](CCCC)NC(=O)CNC(=O)[C@H](CCC(=O)O)NC(=O)C(C)(C)NC(=O)C(C)(C)NC(=O)[C@@H](NC(=O)[C@H](CCCCNC(C)=O)NC(=O)[C@H](C)NC(=O)[C@H](CCCNC(=N)N)NC(=O)[C@@H](NC(=O)[C@H](CCCCN)NC(=O)[C@H](CCC(=O)O)NC(=O)[C@H](CCCNC(=N)N)NC(=O)CNC(=O)[C@H](CCC(=O)O)NC(=O)[C@H](CC(C)C)NC(C)=O)C(C)C)[C@@H](C)CC)[C@@H](C)O)C(N)=O)C(=O)O)C(=O)O)C(=O)O` [SA10SC-RLX] (Ac-LEGREKVRAK(Ac)I[Aib][Aib]EG[Nle]STWS[Aib]RKK(Ac)K([AEEA-AEEA-AEEA-γGlu-γGlu-γGlu-Stearoyl])-NH2), the Emax is 68.5 ± 2.8% on rat RXFP1 (read-out: Emax (%) ± SEM cAMP); 93.7 ± 1.1% at RXFP1 [1] (read-out: Emax (%) ± SEM cAMP); 84.1 ± 1.1% at RXFP1 [2] (OVCAR-5, read-out: Emax (%) ± SEM cAMP).
With relaxin, the “Emax (%) ± SEM cAMP” value at rat RXFP1 (HEK_ratRXFP1 cells, % of 100 nM relaxin response, n = 6) worked out at 95.6 ± 0.8%; on RXFP1 [1] (EA.hy926_hRXFP1 cells, % of 100 nM relaxin response, n = 5), 100.1 ± 0.7%; at RXFP1 [2] (OVCAR5 cells, % of 100 nM relaxin response, n = 6), 96.2 ± 0.8%. The EC50 in the test with rat RXFP1 (HEK_ratRXFP1 cells, geometric mean of relative EC50 with 95% CI, n = 6) is 1.4 nM. Moreover, the “cAMP response (efficacy)” value at hRXFP1 (F76V) is “reduced in all RXFP1 mutants compared to the wild type construct”.

As usually defined, the Emax is the size of the effect at its maximum, as opposed to the concentration needed. In general, EC50 refers to the concentration giving half of the maximal effect. Read a low EC50 as a more potent agent.
